Laboratory results as given in the NIST ThermoML archive (doi:10.1016/j.jct.2017.07.016).

Assay: xn = mol fraction of the nth substance listed
Details: 96.7 kPa, Liquid; for mass density: Vibrating tube method; for viscosity: Capillary tube (Ostwald / Ubbelohde) method

CCCCCCn1cc[n+](C)c1.[Cl-] [1-hexyl-3-methylimidazolium chloride] + CC(=O)N(C)C
Details | mass density [kg/m3] | viscosity [mPa·s]
328.15 K, x1 = 0.155 | 947.22 | –
328.15 K, x1 = 0.301 | 971.59 | –
328.15 K, x1 = 0.392 | 982.65 | –
328.15 K, x1 = 0.503 | 993.19 | –
328.15 K, x1 = 0.63 | 1003.22 | –
328.15 K, x1 = 0.794 | 1012.63 | –
328.15 K, x1 = 0.887 | 1017.33 | –
328.15 K, x1 = 1 | 1021.92 | –
333.15 K, x1 = 0.155 | 943.5 | 2.091
333.15 K, x1 = 0.301 | 967.98 | 6.213
333.15 K, x1 = 0.392 | 979.22 | 12.02
333.15 K, x1 = 0.503 | 989.93 | 24.45
333.15 K, x1 = 0.63 | 1000.11 | 57.41
333.15 K, x1 = 0.794 | 1009.73 | 130.32
333.15 K, x1 = 0.887 | 1014.53 | 291.17
333.15 K, x1 = 1 | 1019.13 | 453.59
338.15 K, x1 = 0.155 | 939.77 | 1.931
338.15 K, x1 = 0.301 | 964.37 | 5.522
338.15 K, x1 = 0.392 | 975.8 | 10.41
338.15 K, x1 = 0.503 | 986.68 | 20.82
338.15 K, x1 = 0.63 | 997.03 | 46.28
338.15 K, x1 = 0.794 | 1006.85 | 101.08
338.15 K, x1 = 0.887 | 1011.76 | 216.49
338.15 K, x1 = 1 | 1016.38 | 327.52
343.15 K, x1 = 0.155 | 935.94 | 1.786
343.15 K, x1 = 0.301 | 960.77 | 4.918
343.15 K, x1 = 0.392 | 972.39 | 9.14
343.15 K, x1 = 0.503 | 983.44 | 17.42
343.15 K, x1 = 0.63 | 993.95 | 37.9
343.15 K, x1 = 0.794 | 1003.99 | 79.83
343.15 K, x1 = 0.887 | 1009.01 | 163.62
343.15 K, x1 = 1 | 1013.65 | 243.04
348.15 K, x1 = 0.155 | 932.05 | 1.658
348.15 K, x1 = 0.301 | 957.18 | 4.443
348.15 K, x1 = 0.392 | 968.98 | 8.018
348.15 K, x1 = 0.503 | 980.22 | 14.93
348.15 K, x1 = 0.63 | 990.89 | 31.38
348.15 K, x1 = 0.794 | 1001.15 | 63.75
348.15 K, x1 = 0.887 | 1006.28 | 125.96
348.15 K, x1 = 1 | 1010.91 | 183.45
353.15 K, x1 = 0.155 | 928.09 | 1.542
353.15 K, x1 = 0.301 | 953.59 | 4.015
353.15 K, x1 = 0.392 | 965.58 | 7.115
353.15 K, x1 = 0.503 | 977 | 12.86
353.15 K, x1 = 0.63 | 987.84 | 26.46
353.15 K, x1 = 0.794 | 998.33 | 51.4
353.15 K, x1 = 0.887 | 1003.57 | 98.54
353.15 K, x1 = 1 | 1008.18 | 140.06
